Measured values: paper PMC3844902 (British Journal of Cancer, 2013)

Assay: Safety and tolerability
Assay type: in vivo, Japanese patients
Details: just after meals, in combination with erlotinib 150 mg QD

O=C1NC(=O)[C@@H](c2cn3c4c(cccc24)CCC3)[C@@H]1c1c[nH]c2ccccc12 [tivantinib]
Recommended phase II dose (RP2D) of tivantinib (Japanese EMs): 360 mg BID
Recommended phase II dose (RP2D) of tivantinib (Japanese PMs): 240 mg BID
